Source: patent US11414387B2, “Oxoacridinyl acetic acid derivatives and methods of use” (Stingthera, Inc., priority 2017, dated 2022)
pIC50: −log10 of the molar value. Values belong to the compound of their own block, whether it stands above or below them.

Tests used:
[1] = target: mSTING-CTD (Mus musculus (Mouse), UniProt Q3TBT3); experiment: Mouse STING protein FP competition concentration response assay; assay type: binding
Protocol: (§1) A validated STING ligand, such as c-di-GMP, which is labeled with a read-out signal (e.g., a fluorescence signal such as fluorescein), is mixed with STING-CTD (e.g., mouse STING-CTD or human STING-CTD) with or without the presence of a compound of the present application. Changes in the read-out signal are measured (e.g., by fluorescence anisotropy) to determine the binding of the compound to STING-CTD.
Fluorescein labeled c-di-GMP was mixed with mSTING-CTD with or without the presence of a compound of the present application in PBS in black 384-well plates (10 μL per well). The fluorescence anisotropy was determined on a PerkinElmer EnVisions multi-mode plate reader. The plate can be read immediately after mixing the reagents or after a few hours without change of signals.
• 1) 6×his-sumo-mSTING (Supplier: HDB) • 2) 2′-Fluo-AHC-c-di GMP (BIOLOG #F009) • 3) 23-cGAMP (BIOLOG #C161) • 4) DMXAA (InvivoGen #tlrl-dmx) • 5) DMSO (Sigma. #D5879-100 mL) • 6) 10×PBS(HDB #MCP-020) • 7) Assay plate, 384-well black plate, solid black bottom (Greiner #784076) • 8) Compound dilution intermediate plate, 384 LDV plate (Labcyte #LP-0200) • 9) Liquid handler, ECHO550 (Labcyte) • 10) Liquid handler, Bravo (Aglient) • 11) Reader, Envision (PerkinElmer) • 12) Centrifuge (Eppendorf) • 13) Multichannel Pipette (Raining) • 14) 10 ml Reservoir (Corning) • 15) 15 ml centrifuge tube (Corning) • 16) Adhesive Plate seals (BioRad) Compound Preparation • a) Containers of each compound were centrifuged at 1000 rpm for 5 min. • b) Compounds were dissolved in DMSO at 30 mM. • c) Compounds were sufficiently vortexed, and centrifuged at 1000 rpm for 1 min. • d) 16 uL of the compound solution was transferred into a LDV Compound Plate. • e) 2-fold serial dilutions of the compound solution were made with DMSO, and 14 concentrations were made in the 384-well LDV Compound Plate. • f) The LDV plate was spun at 1000 rpm for 60 sec and sealed with foil (stored at −20° C. if not used immediately). • g) 335 nL of each compound from the LDV Compound Plate was transferred to Assay Plate (ECHO550). Probe Preparation • a) 200 uM probe stock (2′-Fluo-AHC-c-diGMP) was diluted by dd2O to 6 uM working concentration. • b) 10-12 uL 6 uM working solution of probe was transferred into the LDV plate. • c) 50 nL per well 6 uM working solution of probe was transferred from the LDV plate to each well of the empty Assay Plate (Greiner 784076) by ECHO550 Buffer mode. • d) Probe final concentration was 30 nM when assay system was 10 uL. • e) The Assay Plate was spun at 1000 rpm for 1 min. Compound Addition • a) After the LDV Compound Plate was prepared, 100 nL compound (ECHO550 DMSO mode) was transferred from the LDV Compound Plate into the Assay Plate (Greiner 784076) containing 50 nL probe in each well according to the Assay Plate layout. • b) DMSO final concentration was 1% when assay system was 10 uL. • c) The Assay Plate was spun at 1000 rpm for 1 min. Protein Addition • a) Aliquot of 6×his-sumo-mSTING protein was thawed on ice, briefly to generate uniform solution. • b) 66 uM stock protein was diluted in 1×PBS assay buffer to generate 8 uM final solutions. • c) For test compound and ZPE wells, 10 μL per well of 8 uM protein solutions was added into the Assay Plate containing both the probe and test compounds or DMSO using multichannel pipette. • d) For HPE wells, 10 µL/well of 1×PBS assay buffer instead of protein was added into the Assay Plate containing both the probe and DMSO using multichannel pipette. • e) The Assay Plate was spun at 1000 rpm for 1 min. • f) The Assay Plate was incubated at r.t. for 10-20 min.
(§2) The EnVision plate reader was used to record the FA value of each well immediately after mixing the reagents or after a few hours without change of signals.
(§3) The raw data and calculated data (Fluorescence anisotropy (FA)) was exported from the EnVision reader. […]

[2] = target: hSTING-CTD (Homo sapiens (Human), UniProt Q86WV6); experiment: Human STING protein FP competition concentration response assay; assay type: binding
Protocol: as §1
Fluorescein labeled c-di-GMP, a validated STING ligand, was mixed with recombinant hSTING-CTD in a homogenous assay format with or without the presence of a compound of the present application (titrated) in PBS in black 384-well plates (10 μL per well). The fluorescence anisotropy was determined on a PerkinElmer EnVisions multi-mode plate reader. The plate can be read immediately after mixing the reagents or after a few hours without change of signals.
• 1) hSTING (Supplier: HDB) • 2) 2′-Fluo-AHC-c-di GMP (BIOLOG #F009) • 3) 2′3′-cGAMP (BIOLOG #C161) • 4) DMXAA (InvivoGen #tlrl-dmx) • 5) DMSO (Sigma, #D5879-100 mL) • 6) 10×PBS(HDB #MCP-020) • 7) Assay plate, 384-well black plate, solid black bottom (Greiner #784076) • 8) Compound dilution intermediate plate, 384 LDV plate (Labcyte #LP-0200) • 9) Liquid handler, ECHO550 (Labcyte) • 10) Liquid handler, Bravo (Aglient) • 11) Reader, Envision (PerkinElmer) • 12) Centrifuge (Eppendorf) • 13) Multichannel Pipette (Raining) • 14) 10 ml Reservoir (Corning) • 15) 15 ml centrifuge tube (Corning) • 16) Adhesive Plate seals (BioRad) Compound Preparation • a) Containers of each compound were centrifuged at 1000 rpm for 5 min. • b) Compounds were dissolved in DMSO at 30 mM. • c) Compounds were sufficiently vortexed, and centrifuged at 1000 rpm for 1 min. • d) 16 uL of the compound solution was transferred into a LDV Compound Plate. • e) 2-fold serial dilutions of the compound solution were made with DMSO, and 14 concentrations were made in the 384-well LDV Compound Plate. • f) The LDV plate was spun at 1000 rpm for 60 sec and sealed with foil (stored at −20° C. if not used immediately). • g) 335 nL of each compound from the LDV Compound Plate was transferred to Assay Plate (ECHO550). Probe Preparation • a) 200 uM probe stock (2′-Fluo-AHC-c-diGMP) was diluted by ddH2O to 6 uM working concentration. • b) 10-12 uL 6 uM working solution of probe was transferred into the LDV plate. • c) 50 nL per well 6 uM working solution of probe was transferred from the LDV plate to each well of the empty Assay Plate (Greiner 784076) by ECHO550 Buffer mode. • d) Probe final concentration was 30 nM when assay system was 10 uL. • e) The Assay Plate was spun at 1000 rpm for 1 min. Compound Addition • a) After the LDV Compound Plate was prepared, 335 nL compound (ECHO550 DMSO mode) was transferred from the LDV Compound Plate into the Assay Plate (Greiner 784076) containing 50 nL probe in each well according to the Assay Plate layout. • b) DMSO final concentration was 3.35% when assay system was 10 uL. • c) The Assay Plate was spun at 1000 rpm for 1 min. Protein Addition • a) Aliquot of hSTING protein was thawed on ice, briefly to generate uniform solution. • b) 55 uM stock protein was diluted in 1×PBS assay buffer to generate 10 uM final solutions. • c) For test compound and ZPE wells, 10 μL per well of 10 uM protein solutions was added into the Assay Plate containing both the probe and test compounds or DMSO using multichannel pipette. • d) For HPE wells, 10 μL/well of 1×PBS assay buffer instead of protein was added into the Assay Plate containing both the probe and DMSO using multichannel pipette. • e) The Assay Plate was spun at 1000 rpm for Imin. • f) The Assay Plate was incubated at r.t. for 10-20 min.
as §2, §3

[3] = target: hSTING-WT (Homo sapiens (Human), UniProt Q86WV6, H232R); experiment: Radiometric filtration binding competition assay, hSTING-WT
Protocol: A radiometric filtration binding competition assay was performed to quantify the binding affinity of compounds of the present application for the human or mouse STING protein, or associated HAQ human isoform. […] The resulting dose response was fit by non-linear regression to determine an IC50 value, from which a Ki value for each compound was extrapolated.
The resulting complexes were then filtered, dried, and scintillation fluid was added and the remaining radio signal was measured to determine the degree of compound ligand inhibition. This assay format was optimized for both the WT and HAQ isoforms of the human protein and the mouse orthologue protein.
Probe Concentration: Minimum concentration that achieved max assay window • g. Assay Format: Scintillation Proximity Bead or Filtration Binding Plate • h. […] Assay incubation times for successive incubation steps
WT-hSWAT: WT_FBA_HIS-SUMO-hSWAT IC50 (μM) (“WT”=Wild-type); HAQ-hSWAT: HAQ_FBA_HIS-SUMO-hSWAT IC50 (μM) (“HAQ”=human HAQ allele of STING protein); and WT-mSWAT: MOUSE_FBA_HIS-SUMO-mnSWAT IC50 (μM) which is the mouse isoform of STING protein.

[4] = target: mSTING-R232 (Mus musculus, UniProt Q3TBT3); experiment: STING differential scanning fluorimetry (DSF) assay, mouse STING; conditions: net shift in melting temperature
[5] = target: hSTING-R232 (Homo sapiens (Human), UniProt Q86WV6, H232R); experiment: STING differential scanning fluorimetry (DSF) assay, WT human STING; conditions: WT (R232) human STING aa140-379, net shift in melting temperature
Protocol: A STING DSF assay was performed to determine protein thermostability shift in response to small molecule ligand binding. A STING thermostability shift assay based on differential scanning fluorimetry was used to measure (1) the net shift in melting temperature (ΔTm)between the apo and ligand-bound states of the STING protein and (2) the concentration of the thermal denaturation transition (EC50) as a surrogate measure of binding affinity (K). […] Protein in assay buffer was transferred to a 384 well plate and incubated with the hydrophobic fluorescent dye SYBR Orange. A temperature ramp was applied to the plate and the resulting dye fluorescence was plotted as a function of temperature. The first derivative of this function (dF/dT) was then used to extrapolate the melting temperature of the protein at various concentrations of compound and determine the thermal denaturation profile of a protein/compound complex.
• 1. Protein construct (affinity tag removal vs SUMO-fusion construct) • 2. Protein concentration • 3. Dye concentration • 4. Buffer • 5. Thermal ramp velocity • 6. DMSO tolerance • 7. Compound titration parameters • 8. […] 5 μM purified Target STING Protein • 3. 8 μM Sypro Orange Dye • 4. Buffer: 100 mM NaCl, 30 mM HEPES, pH 7.5 • 5. Thermal Ramp: 0.5° C./min • 6. <1% DMSO • 7. 11 point, 2 fold dilution, duplicate, 300 μM high concentrations • 8.

[6] = target: STING protein (Homo sapiens (Human), UniProt Q86WV6, H232R); experiment: Cell based reporter assay of IRF activation (IRF-luciferase), THP1-dual-KI R232; conditions: read-out: THP1-dual-KI R232_IRF(Luciferase)_Activity Maximum measured (%)
STING protein, sequence (Q86WV6 whole entry H232R): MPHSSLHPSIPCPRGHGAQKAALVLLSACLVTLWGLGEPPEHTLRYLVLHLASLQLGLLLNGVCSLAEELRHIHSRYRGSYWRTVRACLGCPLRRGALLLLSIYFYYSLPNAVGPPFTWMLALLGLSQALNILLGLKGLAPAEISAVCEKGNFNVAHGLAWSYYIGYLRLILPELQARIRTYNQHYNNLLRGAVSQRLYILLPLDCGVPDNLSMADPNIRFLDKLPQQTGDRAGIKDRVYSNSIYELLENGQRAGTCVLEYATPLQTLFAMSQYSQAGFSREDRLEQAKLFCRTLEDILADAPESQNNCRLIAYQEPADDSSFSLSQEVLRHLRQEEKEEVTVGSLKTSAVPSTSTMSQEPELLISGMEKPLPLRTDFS
From the text: Briefly, THP-1 monocytes were transfected and selected for stable integration of 2 reporter constructs. Clones incorporating stably integrated vectors were further selected by antibiotic resistance to blastocidin and zeocin. The reporter constructs included: (1) firefly luciferase reporter gene under the control of an ISG54 promoter fused to five interferon (IFN)-stimulated response elements to measure IRF transcription factor binding activity and (2) secreted embryonic alkaline phosphatase reporter gene under transcription control of an IFN-beta minimal promoter fused to 5 copies of the NFkB consensus transcriptional response element and 3 copies of the c-Rel binding site.
The resulting THP-1 cell line was further modified to incorporate 3 amino acid point mutations (H71R A230G Q293R). This modification of the native TMEM173 gene in THP-1 cells (HAQ) was designed to produce a cell reporter that expressed the most common allelic variant in the human population (THP-1 R232, available from InvivoGen). Alternatively, the TMEM173 gene was knocked out to provide a congenic control to counter-screen for compound activation that was independent of the STING protein (THP-1 STING KO).
Once cell lines were established, reporter assay protocols were developed and optimized to screen small molecule compounds for agonist activity. Assay optimization for efficacy and Z′ value included titration of the following parameters:
• 1. Cell pre-activation with PMA • 2. Cell seeding density • 3. DMSO tolerance • 4. Media selection • 5. FBS concentration • 6. Incubation time • 7. Co-Assessment of cell viability by CTG assay • 8. Appropriate HPE and ZPE controls • 9. Dose Response Titration Final Assay SOP Conditions • 1. No pre-activation with PMA • 2. 5×10^4 cells/well in 96 well plate format • 3. <0.5% DMSO • 4. […] 10% FBS • 6. 14-18 hr incubation • 7. Cell Titer Glo reagent (Promega) following supernatant removal • 8.

hSTING-CTD, sequence (Q86WV6 135-379): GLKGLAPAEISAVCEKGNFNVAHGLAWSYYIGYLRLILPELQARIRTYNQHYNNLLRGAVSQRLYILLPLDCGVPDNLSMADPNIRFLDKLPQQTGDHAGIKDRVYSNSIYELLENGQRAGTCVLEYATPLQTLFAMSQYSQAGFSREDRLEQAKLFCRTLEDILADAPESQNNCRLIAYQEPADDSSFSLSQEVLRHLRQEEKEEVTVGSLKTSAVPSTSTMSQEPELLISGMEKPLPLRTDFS
mSTING-CTD, sequence (Q3TBT3 134-378): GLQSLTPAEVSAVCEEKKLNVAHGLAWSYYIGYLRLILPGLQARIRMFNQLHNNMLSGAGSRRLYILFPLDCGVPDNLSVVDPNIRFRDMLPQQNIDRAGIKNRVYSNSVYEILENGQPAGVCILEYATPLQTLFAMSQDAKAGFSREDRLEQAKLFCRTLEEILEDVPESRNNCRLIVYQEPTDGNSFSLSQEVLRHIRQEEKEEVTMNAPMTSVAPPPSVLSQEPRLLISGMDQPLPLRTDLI
hSTING-WT, sequence (Q86WV6 140-379 H232R): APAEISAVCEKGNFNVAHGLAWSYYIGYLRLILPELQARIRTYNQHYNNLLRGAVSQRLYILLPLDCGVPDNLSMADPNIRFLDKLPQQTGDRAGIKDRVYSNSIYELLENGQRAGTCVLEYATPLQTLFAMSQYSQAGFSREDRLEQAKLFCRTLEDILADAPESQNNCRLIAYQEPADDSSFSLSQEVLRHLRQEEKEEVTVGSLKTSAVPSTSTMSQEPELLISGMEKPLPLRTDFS
hSTING-R232, sequence (Q86WV6 140-379 H232R): as above

Compound: O=C(O)Cn1c2ccccc2c(=O)c2c(F)cccc21 [Compound 1]
pIC50 [1]: 4.00 to 4.30

Compound: O=C(O)Cn1c2ccccc2c(=O)c2c(Cl)cccc21 [Compound 2]
pIC50 [1]: 4.00 to 4.30

Compound: Cc1cccc2c1c(=O)c1ccccc1n2CC(=O)O [Compound 3]
pIC50 [1]: 4.30 to 5.00

Compound: O=C(O)Cn1c2ccccc2c(=O)c2ccc(F)cc21 [Compound 4]
pIC50 [1]: 4.30 to 5.00

Compound: O=C(O)Cn1c2ccccc2c(=O)c2ccc(Cl)cc21 [Compound 5]
pIC50 [1]: 4.30 to 5.00

Compound: Cc1ccc2c(=O)c3ccccc3n(CC(=O)O)c2c1 [Compound 6]
pIC50 [1]: 4.30 to 5.00

Compound: Cc1ccc2c(=O)c3c(C)cccc3n(CC(=O)O)c2c1 [Compound 14]
pIC50 [1]: 4.30 to 5.00

Compound: Cc1cc2c(=O)c3ccc(Cl)c(Cl)c3n(CC(=O)O)c2cc1F [Compound 93]
pIC50 [2]: 3.00 to 3.30

Compound: COc1ccc2c(=O)c3ccc(Cl)c(Cl)c3n(CC(=O)O)c2c1 [Compound 95]
pIC50 [2]: 3.30 to 4.00

Compound: Cc1ccc2c(c1C)c(=O)c1ccc(Cl)c(Cl)c1n2CC(=O)O [Compound 96]
pIC50 [2]: 3.30 to 4.00

Compound: Cc1ccc2c(c1)c(=O)c1ccc(Cl)c(Cl)c1n2CC(=O)O [Compound 121]
pIC50 [2]: 3.00 to 3.30

Compound: COc1c(Cl)ccc2c(=O)c3ccc(C4CCNCC4)cc3n(CC(=O)O)c12 [Compound 226]
pIC50 [2]: < 3.00
pIC50 [3]: 3.52 to 4.00
WT_DSF_hSWAT Tm Shift (° C.) [5]: C (“C” = 2-7° C,)

Compound: CC(C)(C)c1ccc2c(=O)c3ccc(Cl)c(OC4CCC4)c3n(CC(=O)O)c2c1 [Compound 228]
pIC50 [2]: < 3.00
pIC50 [3]: 4.00 to 4.70
WT_DSF_hSWAT Tm Shift (° C.) [5]: C (“C” = 2-7° C,)
Emax [6]: < 5%

Further lines, results first:

pIC50 [2]: > 4.00
Compound: CC(C)c1ccc(-c2ccc3c(=O)c4ccc(Cl)c(Cl)c4n(CC(=O)O)c3c2)cc1 [Compound 91]

pIC50 [2]: > 4.00
Compound: N#Cc1ccc2c(=O)c3ccccc3n(CC(=O)O)c2c1Cl [Compound 107]

pIC50 [2]: > 4.00
pIC50 [3]: 4.00 to 4.70
MOUSE DSF_6xHIS-SUMO Tm Shift (° C.) [4]: C (“C” = 5-15° C.)
WT_DSF_hSWAT Tm Shift (° C.) [5]: B (“B” = 0-2° C.)
Emax [6]: 5 to 25%
Compound: Cc1ccc2c(=O)c3ccc(Cl)c(Br)c3n(CC(=O)O)c2c1 [Compound 112]

pIC50 [2]: > 4.00
Compound: O=C(O)Cn1c2cc(C3=CCCC3)ccc2c(=O)c2ccc(Cl)c(Cl)c21 [Compound 114]

pIC50 [2]: > 4.00
Compound: O=C(O)Cn1c2cc(C3=CCCCC3)ccc2c(=O)c2ccc(Cl)c(Cl)c21 [Compound 116]

pIC50 [2]: > 4.00
Compound: O=C(O)Cn1c2cc(NC3CCC3)ccc2c(=O)c2ccc(Cl)c(Cl)c21 [Compound 117]

pIC50 [2]: > 4.00
Compound: O=C(O)Cn1c2cc(NC3CCCC3)ccc2c(=O)c2ccc(Cl)c(Cl)c21 [Compound 118]

pIC50 [2]: > 4.00
Compound: CC(C)Nc1ccc2c(=O)c3ccc(Cl)c(Cl)c3n(CC(=O)O)c2c1 [Compound 119]

pIC50 [2]: > 4.00
pIC50 [3]: 4.00 to 4.70
MOUSE DSF_6xHIS-SUMO Tm Shift (° C.) [4]: D (“D” > 15° C.)
WT_DSF_hSWAT Tm Shift (° C.) [5]: C (“C” = 2-7° C,)
Emax [6]: > 50%
Compound: O=C(O)Cn1c2cc(NC3CCCCCC3)ccc2c(=O)c2ccc(Cl)c(Cl)c21 [Compound 122]

pIC50 [2]: > 4.00
Compound: CCNc1ccc2c(=O)c3ccc(Cl)c(Cl)c3n(CC(=O)O)c2c1 [Compound 123]

pIC50 [2]: > 4.00
pIC50 [3]: 4.00 to 4.70
MOUSE DSF_6xHIS-SUMO Tm Shift (° C.) [4]: B (“B” = 0-5° C.)
WT_DSF_hSWAT Tm Shift (° C.) [5]: C (“C” = 2-7° C,)
Emax [6]: < 5%
Compound: O=C(O)Cn1c2ccc(-c3ccccc3)cc2c(=O)c2ccc(Cl)c(Cl)c21 [Compound 125]

pIC50 [2]: > 4.00
pIC50 [3]: < 3.52
WT_DSF_hSWAT Tm Shift (° C.) [5]: B (“B” = 0-2° C.)
Emax [6]: < 5%
Compound: COCc1c(Cl)ccc2c(=O)c3ccccc3n(CC(=O)O)c12 [Compound 229]
